Earlier results, collected in patent US8101633B2, “Preparation and utility of substituted imidazopyridine compounds with hypnotic effects” (Auspex Pharmaceuticals, Inc., priority 2006, dated 2012).

System: cytochrome P450
Conditions: background statement

Cc1ccc(-c2nc3ccc(C)cn3c2CC(=O)N(C)C)cc1 [zolpidem, Zolpidem]
share of net intrinsic clearance accounted for by imidazopyridyl methyl group oxidation: ~12% | share of net intrinsic clearance accounted for by oxidation of the benzylic methyl group: approximately 84%
